Reference: article PMC10895678 (Journal of Medicinal Chemistry, 2024)

System: HepG2 cells
Test: HepG2 mitochondrial dysfunction (Glu/Gal cytotoxicity, MTT)
Format: cell-based
Conditions: glucose medium
Method: Compounds were solubilized to 30 mM in DMSO. The BGAz compounds were added to the HepG2 cell model in a 96-well microplate in half log dilutions from 100–0.0003 μM (final DMSO concentration 0.3%) using both glucose (DMEM consisting of 25 mM glucose) and galactose (DMEM consisting of 10 mM galactose) media. The compounds were incubated with the cell line for 24 h at 37 °C in a humidified CO2 tissue culture incubator, followed by cell viability staining with MTT (3-(4,5-dimethylthiazol-2-yl)-2.5-diphenyltetrazolium bromide) conversion to the Formazan product, determined by absorbance measurement. The cell viability IC50 was determined in HepG2 glucose and metabolism-modified HepG2 galactose, and the fold change difference between the Glu/Gal IC50 was determined. All experiments were performed in duplicate with the mitochondrial toxicity controls rotenone and Antimycin A and the cytotoxin control tamoxifen.

Brc1cc(Br)cc(C2CC(CN3CCCC3)N2Cc2ccccc2Br)c1 (stereo not shown) [BGAz-004]
HepG2 cytotoxicity (in words): negligible effect
